From US11415571B2, “Large scale organoid analysis” (Tempus Labs, Inc., priority 2019, dated 2022) come the findings set out here.

Data set [1] has as its system first lung cancer tumor organoid line. Briefly: high throughput tumor organoid drug screen, per-organoid viability histogram. Conditions: 10,000 nM dose; for viability at 10 µM: Homo sapiens, read-out: mean viability for all organoids in the plot, caspase 3/7 readout. The protocol: (§1) TOs were dissociated as described above and resuspended in a 30:70% mix of GFR Matrigel:growth media at a concentration of 100 cells/μl. The solution was added to 384-well assay plates (Corning) at 20 μl per well for a final concentration of 2,000 cells per well. Assay plates were covered with a Breathe-Easy sealing membrane (Sigma Aldrich) to prevent evaporation. TOs were grown for 72 hours before drug addition. Drugs were prepared in growth media with 2.5 μM Caspase-3/7 Green Apoptosis Assay Reagent (Essen Bioscience). Serial dilutions of each molecule were prepared in 384-well polystyrene plates (Nunc). Diluted drug was added to the assay plate using an Integra Viaflo pipette (Integra) mounted on an Integra Assist Plus Pipetting Robot (Integra). Assay plates were again covered with a Breathe-Easy sealing membrane and TOs were exposed to drugs for another 72 hours before imaging.
(§2) Prior to imaging, TOs were incubated with 4 μM Hoechst 33342 (Fisher Scientific) and 300 nM TO-PRO-3 Iodide (642/661) (Invitrogen) for 1.5-2 hours. Assay plates were imaged using an ImageXpress Micro Confocal (Molecular Devices) at 10× magnification so that ˜100-200 TOs were imaged per well. Images were acquired as 4×15 μm Z-stacks and the 2D projections were analyzed to assess cell viability. Confocal images were analyzed using the MetaXpress software (Molecular Devices) custom module editor feature to design an analysis module that identified TOs by clusters of Hoechst 33342 staining, individual cells by Hoechst 33342 staining, and dead/dying cells by either TO-PRO-3 or Caspase-3/7 staining. The result of this analysis module is a spreadsheet detailing the number of live and dead cells for every individual organoid.
(§3) The percentage of viable cells per organoid was calculated based on the image analysis described above. Organoids with fewer than three cells and larger than the top one percent by size were excluded from analysis. The mean viability for all organoids at a given drug concentration was used in dose-response curves to calculate AUC. AUC was calculated using the computeAUC function using settings for “actual” AUC of the R Package PharmacoGx (v1.17.1). Heatmaps of AUC values were generated using the Pheatmap package (v1.0.12) in R. Scatterplots of AUC values were generated using the ggplot2 package (v3.3.0) in R.
(§4) In this example, data for each therapy is presented as a histogram. […] Viability was determined by the systems and methods disclosed above.
(§5) Each tumor organoid line in these examples was cultured individually in wells of a tissue culture plate, as described above.
In this example, tissue culture wells containing a first lung cancer tumor organoid line were each exposed to one of the therapies listed above.

The subject of data set [2] is second lung cancer tumor organoid line. The description is as above. The following applies: for viability at 10 µM: Homo sapiens, read-out: mean viability for all organoids in the plot. The protocol: as §1, §2, §3, §4, §5
In this example, tissue culture wells containing a second lung cancer tumor organoid line were each exposed to one of the therapies listed above.

The subject of data set [3] is gastric cancer tumor organoid line. In words: cells. Conditions: for organoids of the line that are resistant to the drug / organoids with 0% viability (susceptible to the drug) / organoids with 100% viability (resistant to the drug): caspase 3/7 readout, 10,000 nM dose; for viability at 10 µM: Homo sapiens, read-out: mean viability for all organoids in the plot. On the procedure: as §1, §2, §3, §4, §5
In this example, tissue culture wells containing a gastric cancer tumor organoid line were each exposed to one of the therapies listed above.

The subject of data set [4] is first endometrial cancer tumor organoid line. Briefly: high throughput tumor organoid drug screen, per-organoid viability histogram. On the procedure: as §1, §2, §3, §4, §5
In this example, tissue culture wells containing a first endometrial cancer tumor organoid line were each exposed to one of the therapies listed above.

In data set [5] the test system is colon cancer tumor organoid line. The description is as above. In kind it is cell-based, human. Conditions: caspase 3/7 readout, 10,000 nM dose. On the procedure: as §1, §2, §3, §4, §5
In this example, tissue culture wells containing a colon cancer tumor organoid line were each exposed to one of the therapies listed above.

For data set [6], the system named is second endometrial cancer tumor organoid line. The description is as above. Conditions: for viability at 10 µM: Homo sapiens, read-out: mean viability for all organoids in the plot; for organoids with 0% viability (susceptible to the drug) / organoids with 100% viability (resistant to the drug) / organoids of the line that are resistant to the drug: caspase 3/7 readout, 10,000 nM dose. On the procedure: as §1, §2, §3, §4, §5
In this example, tissue culture wells containing a second endometrial cancer tumor organoid line were each exposed to one of the therapies listed above.

The subject of data set [7] is head and neck cancer tumor organoid line. Described as above. Conditions: for viability at 10 µM: Homo sapiens, read-out: mean viability for all organoids in the plot; for organoids of the line that are resistant to the drug / organoids with 0% viability (susceptible to the drug) / organoids with 100% viability (resistant to the drug): caspase 3/7 readout, 10,000 nM dose. On the procedure: as §1, §2, §3, §4, §5
In this example, tissue culture wells containing a head and neck cancer tumor organoid line were each exposed to one of the therapies listed above.

In data set [8] the test system is colorectal cancer tumor organoid line. The description is as above. In kind it is cell-based, human. The following applies: caspase 3/7 readout, 10,000 nM dose. The protocol:
as §1, §2, §3, §4, §5
In this example, tissue culture wells containing a colorectal cancer tumor organoid line were each exposed to one of the therapies listed above.

Setting [9] is: caspase 3/7 readout, 10,000 nM dose.
Setting [10] is: Homo sapiens, read-out: mean viability for all organoids in the plot.

Structures can show the parent of a compound that is named as a salt.

As for `C[C@@]1(CO)[C@H](O)CC[C@@]2(C)[C@H]1CC[C@H]1C[C@@H]3C[C@@]12CC[C@]3(O)CO` [Aphidicolin], in data set [1] (caspase 3/7 readout), the “organoids of the line that are resistant to the drug” value is given as “presence of organoids”. The viability at 10 µM in data set [2] is approximately 30%. In data set [2] (setting [9]), the “organoids of the line that are resistant to the drug” value was “presence of a small proportion”, the “organoids with 0% viability (susceptible to the drug)” value (“organoids with 0% viability” for short) was “Approximately 50 organoids” and the “organoids with 100% viability (resistant to the drug)” value (shortened to “organoids with 100% viability”) is “Approximately 15 organoids”.
Turning to `CC(=O)O/N=C1/C(=C2/C(=O)Nc3cc(Br)ccc32)Nc2ccccc21` [BIO-acetoxime], in data set [3], the “organoids of the line that are resistant to the drug” value is listed as “general absence”, the “organoids with 0% viability” value is reported as “Approximately 150 organoids” and the “organoids with 100% viability” value was “Approximately 20 organoids”.
With `CC(C)C[C@H](NC(=O)[C@H](Cc1ccccc1)NC(=O)c1cnccn1)B(O)O` [Bortezomib], in data set [3], the viability at 10 µM was approximately 15%, the “organoids of the line that are resistant to the drug” value is “general absence”, the “organoids with 0% viability” value is given as “Approximately 225 organoids” and the “organoids with 100% viability” value is reported as “Approximately 15 organoids”.
For `N.N.[Cl][Pt][Cl]` [Cisplatin], in data set [4] (setting [9]), the “organoids of the line that are resistant to the drug” value is reported as “general absence”, the “organoids with 0% viability” value is given as “Approximately 60 organoids” and the “organoids with 100% viability” value was “Approximately 5 organoids”.
Turning to `O=c1[nH]cc(F)c(=O)[nH]1` [Fluorouracil], the viability at 10 µM in data set [5] (setting [10]) is approximately 25%. In addition, in data set [5], the “organoids of the line that are resistant to the drug” value is recorded as “general absence”, the “organoids with 0% viability” value is reported as “Approximately 70 organoids” and the “organoids with 100% viability” value is “Approximately 10 organoids”.
In the case of `Nc1ccn([C@@H]2O[C@H](CO)[C@@H](O)C2(F)F)c(=O)n1` [Gemcitabine], the viability at 10 µM in data set [1] is approximately 35%. Further, in data set [1] (caspase 3/7 readout), the “organoids of the line that are resistant to the drug” value is recorded as “presence of a small proportion” and the “organoids with 100% viability” value is “Approximately 15 organoids”. The viability at 10 µM in data set [2] is approximately 35%. In addition, in data set [2] (setting [9]), the “organoids of the line that are resistant to the drug” value is listed as “presence of a small proportion”, the “organoids with 0% viability” value is reported as “Approximately 30 organoids” and the “organoids with 100% viability” value was “Approximately 10 organoids”.
As for `CCS(=O)(=O)Nc1ccc2c(c1)/C(=C(/Nc1ccc(CN3CCCCC3)cc1)c1ccccc1)C(=O)N2` [Hesperadin], in data set [6], the viability at 10 µM was approximately 20%, the “organoids with 0% viability” value was “Approximately 100 organoids” and the “organoids with 100% viability” value was “Approximately 5 organoids”.
For `CO[C@@H](C)Cn1c(=O)n(C)c2cnc3ccc(-c4cncc(C(C)(C)O)c4)cc3c21` [LY3023414], in data set [7], the viability at 10 µM was approximately 15%, the “organoids of the line that are resistant to the drug” value is recorded as “general absence”, the “organoids with 0% viability” value is “Approximately 80 organoids” and the “organoids with 100% viability” value is “Approximately 5 organoids”.
Turning to `NC(=O)c1cccc2cn(-c3ccc([C@@H]4CCCNC4)cc3)nc12` [Niraparib], the viability at 10 µM in data set [1] was approximately 25%. In data set [1] (caspase 3/7 readout), the “organoids of the line that are resistant to the drug” value was “presence of a small proportion”, the “organoids with 0% viability” value is listed as “Approximately 80 organoids” and the “organoids with 100% viability” value is on record as “Approximately 20 organoids”.
For `O=C1[O][Pt]2([NH][C@@H]3CCCC[C@H]3[NH]2)[O]C1=O` [Oxaliplatin], in data set [4] (setting [9]), the “mean viability for all organoids in the plot” value (shortened to “mean viability”) was “approximately 40%”, the “organoids of the line that are resistant to the drug” value is listed as “presence of organoids”, the “organoids with 0% viability” value is given as “Approximately 20 organoids” and the “organoids with 100% viability” value is given as “Approximately 18 organoids”.
Regarding `CC(=O)O[C@H]1C(=O)[C@@]2(C)[C@H]([C@H](OC(=O)c3ccccc3)[C@]3(O)C[C@H](OC(=O)[C@H](O)[C@@H](NC(=O)c4ccccc4)c4ccccc4)C(C)=C1C3(C)C)[C@]1(OC(C)=O)CO[C@@H]1C[C@@H]2O` [Paclitaxel], in data set [7], the viability at 10 µM is approximately 40%, the “organoids of the line that are resistant to the drug” value is on record as “presence of a small proportion”, the “organoids with 0% viability” value is “Approximately 65 organoids” and the “organoids with 100% viability” value is given as “Approximately 35 organoids”.
Consider `CCCCc1nc2cc(/C=C/C(=O)NO)ccc2n1CCN(CC)CC` [Pracinostat], for which, in data set [3], the viability at 10 µM was approximately 20%, the “organoids of the line that are resistant to the drug” value is on record as “general absence”, the “organoids with 0% viability” value is “Approximately 120 organoids” and the “organoids with 100% viability” value is “Approximately 10 organoids”.
Consider `COc1cccc(OCCCN)c1-c1cc(Nc2cnc(C#N)cn2)n[nH]1` [Prexasertib, Prexasertib HCl], for which, in data set [6], the viability at 10 µM was approximately 40%, the “organoids of the line that are resistant to the drug” value was “presence of a small proportion”, the “organoids with 0% viability” value is recorded as “Approximately 80 organoids” and the “organoids with 100% viability” value is reported as “Approximately 35 organoids”.
On to `CCc1c2c(nc3ccc(O)cc13)-c1cc3c(c(=O)n1C2)COC(=O)[C@]3(O)CC` [SN-38], for which, in data set [1] (caspase 3/7 readout), the “mean viability” value was “approximately 45%”, the “organoids of the line that are resistant to the drug” value is listed as “presence of organoids”, the “organoids with 0% viability” value was “Approximately 20 organoids” and the “organoids with 100% viability” value is recorded as “Approximately 20 organoids”. In addition, in data set [2] (setting [9]), the “mean viability” value is “approximately 20%”, the “organoids of the line that are resistant to the drug” value was “general absence”, the “organoids with 0% viability” value is on record as “Approximately 100 organoids” and the “organoids with 100% viability” value is on record as “Approximately 5 organoids”.
`O=C(O)/C=C/c1ccc(-c2ccc(O)c(C34CC5CC(CC(C5)C3)C4)c2)cc1` [ST-1926, Adarotene]: the viability at 10 µM in data set [4] (setting [10]) is approximately 30%. For the same compound, in data set [4] (setting [9]), the “organoids of the line that are resistant to the drug” value is recorded as “general absence”, the “organoids with 0% viability” value is reported as “Approximately 45 organoids” and the “organoids with 100% viability” value is on record as “Approximately 10 organoids”. For the same compound, in data set [6], the viability at 10 µM is approximately 40%, the “organoids of the line that are resistant to the drug” value was “presence of a small proportion”, the “organoids with 0% viability” value was “Approximately 65 organoids” and the “organoids with 100% viability” value is given as “Approximately 40 organoids”.
As for `CC(=O)Nc1cccc(-n2c(=O)n(C3CC3)c(=O)c3c(Nc4ccc(I)cc4F)n(C)c(=O)c(C)c32)c1` [Trametinib], in data set [8] (setting [10]), the viability at 10 µM was approximately 25%. Further, in data set [8], the “organoids with 0% viability” value is on record as “Approximately 50 organoids” and the “organoids with 100% viability” value is “Approximately 10 organoids”.
